How the values were obtained:
[1] = target: T1, hLigI (Homo sapiens, UniProt P18858); assay: In-vitro DNA ligation assay; format: biochemical
T1 construct: made in house
Protocol: (§1) DNA ligation assay was performed as described previously. […] After the incubation, gel images were captured and analyzed by Image Quant LAS4010 software.

[2] = target: T2, hLigIV/XRCC4 (Homo sapiens, UniProt P49917); assay: In-vitro DNA ligation assay; format: biochemical; conditions: 5, 10 and 20 µM
T2 construct: made in house; host or cells: E. coli Rosetta2 (DE3) pLacI
Protocol: as §1

[3] = target: T4 DNA ligase (Enterobacteria phage T4, UniProt P00970); assay: In-vitro DNA ligation assay; format: biochemical; conditions: 5, 10 and 20 µM
Protocol: as §1

[4] = target: T3, hLigIIIβ (Homo sapiens, UniProt P49916); assay: In-vitro DNA ligation assay; format: biochemical; conditions: 5, 10 and 20 µM
T3 construct: made in house; host or cells: E. coli Rosetta2 (DE3) pLacI
Protocol: as §1

[5] = target: T4, hLigI and DNA complex (Homo sapiens, UniProt P18858); assay: Electrophoretic mobility shift assay (EMSA); format: binding; conditions: 120, 250, 500 µM
T4 construct: made in house
Protocol: EMSA was performed as described previously. Briefly, in 20 μl reaction volume 2 pmol non-ligatable nicked DNA substrate was incubated with DMSO (vehicle control) or with different concentrations (120, 250, 500 µM) of compound 19 incubated with 10 pmol of hligI in ligation buffer. After the incubation, samples were separated by 6.5% native PAGE and bands were detected and imaged by Image Quant LAS 4010 (GE Life sciences).

[6] = In-vivo pharmacokinetic study; set-up: species or system Sprague Dawley (SD) rats; conditions: rat
Protocol: Male Sprague Dawley (SD) rats weighing 200–220 g were obtained from the Laboratory of Animal Division of CSIR-CDRI (Lucknow, India). Animals were kept in well ventilated cages in hygienic conditions at room temperature (24 ± 2 °C), 40–60% relative humidity and 12 h light-dark cycle. The animals were acclimatized for a minimum period of 3 days prior to the experiments. Pharmacokinetic study was conducted according to protocol approved by the CSIR-CDRI Institutional Animal Ethic Committee (IAEC approval no. IAEC/2012/91). Compound 19 was dissolved in DMSO:Poly Ethylene Glycol-400: 0.9%w/v saline in the ratio of 1:1:2 and was intravenously administered at the dose of 5 mg/kg to each rat (n = 6). The rats were kept on fasting overnight with water alone for oral pharmacokinetic studies. Compound 19 was dissolved in DMSO:Poly Ethylene Glycol-400: 0.5% w/v Sodium carboxymethyl cellulose in TDW in the ratio of 3:1:4 and was orally administered at the dose of 50 mg/kg to each rat (n = 6). Blood samples were collected in microcentrifuge tubes for each time point at 0.083, 0.167, 0.333, 0.5, 0.75, 1.0, 2.0, 4.0, 6.0, 8.0, 10.0, 12.0, 24.0, 48.0 and 72 h post dosing. The blood samples were collected after light ether anesthesia from the retro-orbital plexus of rats using heparin as anticoagulant. Plasma was separated after centrifugation at 5000 rpm for 10 min and all the samples were stored at −80 °C until analysis. Rat plasma samples were processed using liquid-liquid extraction. 100 µL aliquot of plasma mixed with 150 µL of acetonitrile and 100 µL of 5 mM NaHCO3 solution was added and vortexed to mix well. In each sample, 2.5 mL of tert-Butyl methyl ether (TBME) (extraction solvent) was added and vortexed for 10 min at 2500 rpm on vibramax (Heidolph, Schwabach, Germany) followed by centrifugation (Eppendorf, Hamburg, Germany) at 5,000 rpm for 5 min. An aliquot of 2.0 mL of supernatant organic layer was separated and evaporated on vacuum concentrator (Thermo scientific, Asheville, USA) to complete dryness. The residue was reconstituted with 100 µL of mobile phase and injected into the LC-MS/MS system for analysis. The plasma samples ([…]) were assayed along with calibration standards and QC samples and the levels of compound 19 was calculated using Analyst software. The pharmacokinetic profile and parameters were evaluated by non-compartmental model approach using Pheonix 6.3 WinNonlin (Pharsight corporation, USA) including t1/2, elimination half-life; Cmax, maximum plasma concentration; tmax, time to reach maximum plasma concentration; AUC0-t, area under concentration curve from zero to last time point.

[7] = system: plasmid DNA (pUC18); assay: DNaseI cleavage protection assay; format: binding; conditions: up to 500 µM
Protocol: We performed DNaseI cleavage assay as described in our previous study. Briefly, 100 ng of plasmid DNA (pUC18) was incubated with 100 µM concentration of doxorubicin (a known DNA intercalator), DAPI (DNA minor groove binder), methyl green (DNA major groove binder) and compound 19 (at 250 and 500 µM concentrations) for 30 min at 37 °C in an incubation buffer similar to ligation buffer. After incubation, the DNA was cleaved by adding 0.0025U of DNaseI in each reaction mixture for 5 min at 37 °C and the reactions were stopped by adding stop buffer which contained 7 M Urea, 20 mM Tris-Cl (pH. 7.5), 50 mM EDTA, 20% glycerol and Bromophenol blue. The samples were resolved on 1% agarose gel and visualized under UV transilluminator and image taken with GE Image quant LAS4010.

[8] = target: PARP1 (Homo sapiens, UniProt P09874); assay: PARP1 activity assay (NAD fluorescence); conditions: compound 19 at 5, 10 and 20 µM
Source text: Human PARP1 full length protein was purified as described previously ^4,5.
Samples were cooled and fluorescence measurement carried out at excitation 360nm and emission range 445nm.

[9] = male, Sprague Dawley, plasma, iv, I.V route, 5 mg/kg
[10] = male, Sprague Dawley, plasma, oral route, 50 mg/kg

T1 sequence (P18858 whole entry): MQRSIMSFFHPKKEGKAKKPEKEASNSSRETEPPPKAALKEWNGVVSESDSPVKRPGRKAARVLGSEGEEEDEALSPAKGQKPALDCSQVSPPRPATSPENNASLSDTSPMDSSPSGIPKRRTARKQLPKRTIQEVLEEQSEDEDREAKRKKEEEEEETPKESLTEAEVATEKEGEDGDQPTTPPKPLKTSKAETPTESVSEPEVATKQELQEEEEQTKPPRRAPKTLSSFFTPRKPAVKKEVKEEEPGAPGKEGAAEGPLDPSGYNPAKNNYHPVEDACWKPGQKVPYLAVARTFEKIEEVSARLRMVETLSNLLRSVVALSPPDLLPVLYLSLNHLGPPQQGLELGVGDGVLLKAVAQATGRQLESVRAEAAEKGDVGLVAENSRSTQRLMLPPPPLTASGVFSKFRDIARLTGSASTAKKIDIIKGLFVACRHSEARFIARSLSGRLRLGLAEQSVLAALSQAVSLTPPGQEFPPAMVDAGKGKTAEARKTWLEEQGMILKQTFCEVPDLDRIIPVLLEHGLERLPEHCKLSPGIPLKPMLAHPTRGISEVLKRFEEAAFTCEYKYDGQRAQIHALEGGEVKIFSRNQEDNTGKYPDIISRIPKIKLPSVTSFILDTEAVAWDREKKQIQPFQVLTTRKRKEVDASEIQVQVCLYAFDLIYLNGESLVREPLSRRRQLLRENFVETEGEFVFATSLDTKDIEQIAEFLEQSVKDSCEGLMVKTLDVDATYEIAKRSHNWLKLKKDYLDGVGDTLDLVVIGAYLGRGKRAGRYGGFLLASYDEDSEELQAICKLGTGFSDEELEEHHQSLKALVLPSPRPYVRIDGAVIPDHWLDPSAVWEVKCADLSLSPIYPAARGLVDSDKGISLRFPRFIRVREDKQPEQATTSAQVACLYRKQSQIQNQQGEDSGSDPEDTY
T4 sequence (P18858 whole entry, one chain of several): as the sequence (P18858 whole entry) above
Sequence of T4 DNA ligase (P00970 whole entry): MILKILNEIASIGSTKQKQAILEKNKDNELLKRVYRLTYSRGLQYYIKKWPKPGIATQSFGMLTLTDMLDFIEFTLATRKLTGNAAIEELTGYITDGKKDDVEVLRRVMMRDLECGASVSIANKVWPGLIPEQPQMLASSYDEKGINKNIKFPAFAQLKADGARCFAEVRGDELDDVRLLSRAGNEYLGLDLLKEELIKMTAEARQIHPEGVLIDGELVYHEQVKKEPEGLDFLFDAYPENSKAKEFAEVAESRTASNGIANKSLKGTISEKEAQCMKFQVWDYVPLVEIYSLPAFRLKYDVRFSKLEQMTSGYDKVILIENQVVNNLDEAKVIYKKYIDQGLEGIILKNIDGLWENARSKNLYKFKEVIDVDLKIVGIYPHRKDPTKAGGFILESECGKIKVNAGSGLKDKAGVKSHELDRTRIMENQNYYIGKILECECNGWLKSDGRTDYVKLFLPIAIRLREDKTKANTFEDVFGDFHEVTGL
T3 sequence (P49916 43-949 isoform P49916-2 limits assumed): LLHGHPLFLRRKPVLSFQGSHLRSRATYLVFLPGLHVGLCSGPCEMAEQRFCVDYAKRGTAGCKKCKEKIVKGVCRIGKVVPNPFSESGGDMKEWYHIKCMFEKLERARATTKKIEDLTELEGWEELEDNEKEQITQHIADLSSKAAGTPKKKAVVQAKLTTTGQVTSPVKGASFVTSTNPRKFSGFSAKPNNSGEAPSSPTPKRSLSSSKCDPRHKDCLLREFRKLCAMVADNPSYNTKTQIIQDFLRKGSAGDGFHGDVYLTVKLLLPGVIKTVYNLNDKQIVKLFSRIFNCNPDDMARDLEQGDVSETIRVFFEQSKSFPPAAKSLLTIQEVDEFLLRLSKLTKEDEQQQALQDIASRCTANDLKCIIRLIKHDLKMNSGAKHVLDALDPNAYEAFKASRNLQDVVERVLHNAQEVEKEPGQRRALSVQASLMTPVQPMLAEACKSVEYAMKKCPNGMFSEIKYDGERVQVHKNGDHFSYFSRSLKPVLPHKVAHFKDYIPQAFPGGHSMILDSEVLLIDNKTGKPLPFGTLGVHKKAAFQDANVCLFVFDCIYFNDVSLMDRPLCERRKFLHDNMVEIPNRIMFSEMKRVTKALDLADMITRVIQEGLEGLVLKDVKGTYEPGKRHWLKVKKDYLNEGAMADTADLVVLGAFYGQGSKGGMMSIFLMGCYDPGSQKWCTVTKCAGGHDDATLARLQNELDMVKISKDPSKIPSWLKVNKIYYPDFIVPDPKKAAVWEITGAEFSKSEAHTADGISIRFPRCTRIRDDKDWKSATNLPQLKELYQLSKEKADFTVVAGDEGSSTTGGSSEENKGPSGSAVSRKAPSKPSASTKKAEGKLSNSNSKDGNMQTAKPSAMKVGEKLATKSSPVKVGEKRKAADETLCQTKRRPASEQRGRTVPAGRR
T2 sequence (P49917 whole entry): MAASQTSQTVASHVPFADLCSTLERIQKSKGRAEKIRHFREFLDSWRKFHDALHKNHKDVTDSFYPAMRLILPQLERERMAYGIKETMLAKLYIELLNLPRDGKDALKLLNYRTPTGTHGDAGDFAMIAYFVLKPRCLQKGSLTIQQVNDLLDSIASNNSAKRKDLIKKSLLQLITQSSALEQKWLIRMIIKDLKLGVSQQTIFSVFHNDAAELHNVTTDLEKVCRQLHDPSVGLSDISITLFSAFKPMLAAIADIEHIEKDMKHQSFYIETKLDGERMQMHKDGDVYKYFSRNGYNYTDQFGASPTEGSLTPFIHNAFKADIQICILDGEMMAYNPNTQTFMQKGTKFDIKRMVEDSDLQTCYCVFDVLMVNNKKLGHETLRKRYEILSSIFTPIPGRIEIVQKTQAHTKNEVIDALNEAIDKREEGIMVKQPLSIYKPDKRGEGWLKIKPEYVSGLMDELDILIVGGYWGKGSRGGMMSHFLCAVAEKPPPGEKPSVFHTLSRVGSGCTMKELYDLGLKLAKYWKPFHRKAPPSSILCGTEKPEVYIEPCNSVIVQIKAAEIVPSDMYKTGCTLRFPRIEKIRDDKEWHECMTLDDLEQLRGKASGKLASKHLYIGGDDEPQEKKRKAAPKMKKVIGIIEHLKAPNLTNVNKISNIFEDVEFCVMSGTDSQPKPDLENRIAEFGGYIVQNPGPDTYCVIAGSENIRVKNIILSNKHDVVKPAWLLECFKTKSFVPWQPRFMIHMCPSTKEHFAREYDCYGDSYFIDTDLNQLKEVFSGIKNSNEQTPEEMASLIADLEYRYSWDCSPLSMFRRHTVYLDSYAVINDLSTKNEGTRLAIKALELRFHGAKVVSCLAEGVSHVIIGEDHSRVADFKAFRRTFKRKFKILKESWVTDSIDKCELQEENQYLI
T2 sequence (Q13426 whole entry partner): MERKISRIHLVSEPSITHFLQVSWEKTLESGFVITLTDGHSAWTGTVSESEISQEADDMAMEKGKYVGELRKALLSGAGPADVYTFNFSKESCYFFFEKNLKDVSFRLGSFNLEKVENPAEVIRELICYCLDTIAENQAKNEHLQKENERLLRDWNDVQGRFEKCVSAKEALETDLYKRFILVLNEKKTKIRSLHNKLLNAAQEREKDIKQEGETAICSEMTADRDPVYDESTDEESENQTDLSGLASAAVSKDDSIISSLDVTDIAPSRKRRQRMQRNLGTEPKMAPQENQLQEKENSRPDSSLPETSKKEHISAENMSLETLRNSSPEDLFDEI
Sequence of PARP1 (P09874 whole entry): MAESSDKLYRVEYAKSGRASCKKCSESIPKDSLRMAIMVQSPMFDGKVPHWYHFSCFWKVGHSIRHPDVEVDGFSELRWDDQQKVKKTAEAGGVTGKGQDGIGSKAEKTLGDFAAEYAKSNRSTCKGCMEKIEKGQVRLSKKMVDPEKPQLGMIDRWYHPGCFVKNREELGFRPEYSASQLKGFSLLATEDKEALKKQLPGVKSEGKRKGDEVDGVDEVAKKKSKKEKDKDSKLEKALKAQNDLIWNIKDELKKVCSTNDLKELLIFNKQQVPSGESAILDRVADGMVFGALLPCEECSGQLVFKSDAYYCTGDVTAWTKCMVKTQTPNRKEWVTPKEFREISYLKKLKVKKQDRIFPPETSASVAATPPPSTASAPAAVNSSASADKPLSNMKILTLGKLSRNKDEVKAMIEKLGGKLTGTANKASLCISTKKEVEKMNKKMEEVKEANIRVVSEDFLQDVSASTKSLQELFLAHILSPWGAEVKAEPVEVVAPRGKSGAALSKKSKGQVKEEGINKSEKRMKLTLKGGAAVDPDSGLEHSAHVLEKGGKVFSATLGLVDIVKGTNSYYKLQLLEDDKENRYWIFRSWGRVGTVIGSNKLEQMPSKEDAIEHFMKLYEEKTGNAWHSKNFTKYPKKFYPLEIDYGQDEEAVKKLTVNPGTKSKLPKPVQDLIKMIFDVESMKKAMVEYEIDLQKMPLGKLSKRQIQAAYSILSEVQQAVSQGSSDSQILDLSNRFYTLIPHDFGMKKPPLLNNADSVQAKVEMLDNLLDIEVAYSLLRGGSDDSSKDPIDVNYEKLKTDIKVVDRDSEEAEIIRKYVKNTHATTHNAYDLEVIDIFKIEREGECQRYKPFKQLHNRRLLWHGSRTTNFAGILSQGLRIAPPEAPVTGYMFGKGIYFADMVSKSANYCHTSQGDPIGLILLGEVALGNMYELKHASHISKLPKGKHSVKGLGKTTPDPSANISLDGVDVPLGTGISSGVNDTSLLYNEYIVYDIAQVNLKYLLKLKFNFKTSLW

SMILES: COc1cc(/C=C/c2cc(=O)oc3c2ccc2ccccc23)cc(OC)c1 [Compound 19, (E)-4-(3,5-dimethoxystyryl)-2H-benzo[h]chromen-2-one]
- Antiligase activity, compound versus parent molecules ([1]; 20 µM): significantly better antiligase activity
- Inhibition of hLigI ligation activity ([1]; 5, 10 and 20 µM): specifically inhibits the activity of hLigI
- Inhibition of hLigIV/XRCC4 ligation activity [2]: unaffected
- Inhibition of T4 DNA ligase activity [3]: unaffected
- Inhibition of hLigIIIβ ligation activity [4]: unaffected
- hLigI and DNA complex formation (EMSA) [5]: decreased the hLigI and DNA complex formation
- Cmax ([6]; male, Sprague Dawley, iv, I.V route, 5 mg/kg, plasma concentration at 5 min): 325 ± 102 ng/mL
- AUC(0-t) [6, 9]: 457 ± 131 ng·h/mL
- half-life [6, 9]: 19.2 ± 11.8 h
- bioavailability ([6]; male, Sprague Dawley, plasma, oral 50 mg/kg versus I.V 5 mg/kg, read-out: Bioavailability (%F)): 7.85 ± 0.65%
- AUC(0-t) [6, 10]: 342 ± 18.6 ng·h/mL
- Cmax [6, 10]: 13.4 ± 2.92 ng/mL
- Tmax [6, 10]: 0.5 h
- half-life [6, 10]: 22.8 ± 4.69 h
- Time up to which plasma concentrations are detectable ([6]; after oral dosing, 50 mg/kg): up to 72 h
- Protection of DNA from cleavage by DNase I (DNA binding) [7]: no protection from cleavage by DNase I
- Inhibition of PARP1 activity [8]: not able to inhibit
